What was measured:
delF508-CFTR-HRP = molecular target: T1, delF508-CFTR-HRP (Homo sapiens, UniProt P13569, DEL508-508); assay: Measurement of delF508-CFTR-HRP surface expression in CFBE41o- cells (HRP luminescence); format: cell-based; conditions: for Emax: CFBE41o-, read-out: DelF508-CFTR-HRP Amax %; for EC50: mean of at least two replicates;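 for DelF508-CFTR-HRP Amax %: percent efficacy relative to a reference CFTR corrector compound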
T1 construct: expressed in transfected cells
Outline: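 Stably transfected CFBE41o- cells carrying HRP in the fourth extracellular loop of delF508-CFTR, induced with 500 ng/mL doxycycline for 48 h, then compound-treated 24 h at 37° C (10-point, 3-fold, top 10 μM). Surface HRP detected by luminescent substrate; EC50 from logistic fit, triplicates, normalized to lowest-concentration median.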

delF508-CFTR = molecular target: T2, delF508-CFTR (Homo sapiens, UniProt P13569, DEL508-508); assay: delF508-CFTR functional activity in primary human bronchial epithelial cells (HBECs), Multi-Transepithelial Clamp Circuit (MTECC-24) assay, equivalent short circuit current; format: cell-based; conditions: primary CF HBECs; for MTECC24 CFHBEC-Amax %: relative to reference combination 2 μM 3-(6-(1-(2,2-difluorobenzo[d][1,3]dioxol-5-yl)cyclopropane-1-carboxamido)-3-methylpyridin-2-yl)benzoic acid (24 h) + 0.5 μM N-(2,4-di-tert-butyl-5-hydroxyphenyl)-4-oxo-1,4-dihydroquinoline-3-carboxamide; for EC50: test compound added 24 h before assay, potentiator (S)-3-amino-6-methoxy-N-(3,3,3-trifluoro-2-hydroxy-2-methylpropyl)-5-(trifluoromethyl)picolinamide present at assay, mean of at least two replicates, read-out: MTECC24 CFHBEC-EC50
T2 construct: functional activity of the CFTR channel (Chloride ion transport) in patient derived primary human bronchial epithelial cells; host or cells: patient-derived primary human bronchial epithelial cells (HBECs), delF508-CFTR
Outline: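 Patient-derived delF508 HBECs, grown at air-liquid interface about two weeks, were corrected with compound basolaterally for 24 h. Compound was then re-added apically and basolaterally in HEPES pH7.4 assay medium, with sequential modulators including forskolin and the picolinamide potentiator. Ieq was recorded, normalised to 0.1% DMSO wells, and EC50 fitted from 10-point curves.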

T1 sequence (P13569 with tags, fused parts or gaps DEL508-508): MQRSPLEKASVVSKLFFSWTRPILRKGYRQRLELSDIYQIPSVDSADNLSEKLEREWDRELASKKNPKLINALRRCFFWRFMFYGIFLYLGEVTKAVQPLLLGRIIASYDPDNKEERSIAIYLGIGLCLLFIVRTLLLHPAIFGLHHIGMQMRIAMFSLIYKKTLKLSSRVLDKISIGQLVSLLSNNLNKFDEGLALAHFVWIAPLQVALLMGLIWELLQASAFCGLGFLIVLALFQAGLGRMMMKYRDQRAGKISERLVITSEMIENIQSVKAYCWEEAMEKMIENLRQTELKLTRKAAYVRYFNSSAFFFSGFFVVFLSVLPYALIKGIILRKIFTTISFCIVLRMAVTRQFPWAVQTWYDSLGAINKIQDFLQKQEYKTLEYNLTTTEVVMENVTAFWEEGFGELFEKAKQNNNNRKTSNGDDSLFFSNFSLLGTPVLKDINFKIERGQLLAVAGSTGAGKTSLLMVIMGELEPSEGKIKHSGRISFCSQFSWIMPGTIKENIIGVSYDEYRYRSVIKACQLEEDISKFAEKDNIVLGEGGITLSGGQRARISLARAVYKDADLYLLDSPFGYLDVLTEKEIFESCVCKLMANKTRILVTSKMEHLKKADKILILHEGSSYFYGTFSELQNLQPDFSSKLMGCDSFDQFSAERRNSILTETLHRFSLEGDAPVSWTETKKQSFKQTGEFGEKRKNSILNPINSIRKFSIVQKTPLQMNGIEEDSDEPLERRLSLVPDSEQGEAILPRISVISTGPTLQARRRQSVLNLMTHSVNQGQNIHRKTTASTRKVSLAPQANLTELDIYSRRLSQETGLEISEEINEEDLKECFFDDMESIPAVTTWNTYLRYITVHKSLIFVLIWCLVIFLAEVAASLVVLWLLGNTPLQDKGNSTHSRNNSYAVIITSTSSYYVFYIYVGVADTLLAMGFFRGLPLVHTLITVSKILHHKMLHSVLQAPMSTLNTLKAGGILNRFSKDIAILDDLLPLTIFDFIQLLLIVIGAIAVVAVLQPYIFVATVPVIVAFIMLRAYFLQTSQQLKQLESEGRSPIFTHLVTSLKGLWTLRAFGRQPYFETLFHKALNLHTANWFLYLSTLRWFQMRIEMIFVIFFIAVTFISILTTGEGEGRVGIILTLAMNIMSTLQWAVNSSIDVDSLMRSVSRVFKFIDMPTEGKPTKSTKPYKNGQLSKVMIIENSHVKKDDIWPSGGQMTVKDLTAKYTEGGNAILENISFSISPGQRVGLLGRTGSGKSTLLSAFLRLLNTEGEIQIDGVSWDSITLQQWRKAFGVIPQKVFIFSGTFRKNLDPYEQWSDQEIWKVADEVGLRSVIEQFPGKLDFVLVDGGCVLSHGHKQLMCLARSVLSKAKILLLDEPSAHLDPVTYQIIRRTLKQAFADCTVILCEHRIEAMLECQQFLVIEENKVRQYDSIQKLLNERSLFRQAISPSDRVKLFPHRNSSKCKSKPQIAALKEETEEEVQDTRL
T2 sequence (P13569 with tags, fused parts or gaps DEL508-508): as above

| SMILES | Emax (delF508-CFTR-HRP) | EC50 (delF508-CFTR-HRP) | MTECC24 CFHBEC-Amax % (delF508-CFTR) | EC50 (delF508-CFTR) | DelF508-CFTR-HRP Amax % (delF508-CFTR-HRP) |
| --- | --- | --- | --- | --- | --- |
| O=C(NS(=O)(=O)c1cccc(N2CC[C@H](O)C2)n1)C1(Oc2cc(Cl)ccc2N2CC3(C2)CC(F)(F)C3)CC1 [Example 9-22, (S)-1-(5-Chloro-2-(6,6-difluoro-2-azaspiro[3.3]heptan-2-yl)phenoxy)-N-((6-(3-hydroxypyrrolidin-1-yl)pyridin-2-yl)sulfonyl)cyclopropanecarboxamide] | 139% | 4460 nM | 82.1% | 1760 nM |  |
| Cc1ccc(C2CCCCC2)c(OC2(C(=O)NS(=O)(=O)c3cccc(N4CC(C)(NC(=O)OC(C)(C)C)C4)n3)CC2)c1 [Example 2-50, Tert-butyl (1-(6-(N-(1-(2-cyclohexyl-5-methylphenoxy)cyclopropane-1-carbonyl)sulfamoyl)pyridin-2-yl)-3-methylazetidin-3-yl)carbamate] | 628% | 1270 nM | 93% | 4 nM |  |
| Cc1ccc(C2CCCCC2)c(OC2(C(=O)NS(=O)(=O)c3cccc(N4CC5(CCN5)C4)n3)CC2)c1 [Example 2-21, N-((6-(1,6-Diazaspiro[3.3]heptan-6-yl)pyridin-2-yl)sulfonyl)-1-(2-cyclohexyl-5-methylphenoxy)cyclopropanecarboxamide] | 252% | 3390 nM | 99% | 93 nM |  |
| Cc1ccc(C2CCCCC2)c(OC2(C(=O)NS(=O)(=O)c3cccc(N4CCC(C)(NC(=O)C5CC5)CC4)n3)CC2)c1 [Example 2-10, 1-(2-Cyclohexyl-5-methylphenoxy)-N-((6-(4-(cyclopropanecarboxamido)-4-methylpiperidin-1-yl)pyridin-2-yl)sulfonyl)cyclopropanecarboxamide] | 327% | 1810 nM | 56% | 3 nM |  |
| Cc1ccc(C2CCCCC2)c(OC2(C(=O)NS(=O)(=O)c3cccc(N4CC(O)C4)n3)CC2)c1 [Example 2-1, 1-(2-Cyclohexyl-5-methylphenoxy)-N-((6-(3-hydroxyazetidin-1-yl)pyridin-2-yl)sulfonyl)cyclopropanecarboxamide] | 668% | 2360 nM | 97% | 5 nM |  |
| Cc1ccc(C2CCCCC2)c(OC2(C(=O)NS(=O)(=O)c3cccc(N[C@H]4C[C@@H](O)C4)n3)CC2)c1 [Example 2-36, 1-(2-Cyclohexyl-5-methylphenoxy)-N-((6-((cis-3-hydroxycyclobutyl)amino)pyridin-2-yl)sulfonyl)cyclopropane-1-carboxamide] | 432% | 2090 nM | 152% | 44 nM |  |
| Cc1ccc(C2CCC(F)(F)CC2)c(OC2(C(=O)NS(=O)(=O)c3cccc(N4CCC5(CC4)CC(=O)c4cc(F)ccc4N5)n3)CC2)c1 [Example 3-1, 1-(2-(4,4-Difluorocyclohexyl)-5-methylphenoxy)-N-((6-(6′-fluoro-4′-oxo-3′,4′-dihydro-1′H-spiro[piperidine-4,2′-quinolin]-1-yl)pyridin-2-yl)sulfonyl)cyclopropanecarboxamide] | 184% | 3070 nM | 34% | 28 nM |  |
| Cc1ccc(C2CCCCC2)c(OC2(C(=O)NS(=O)(=O)c3cccc(N)n3)CC2)c1 [Example 1-1, N-((6-Aminopyridin-2-yl)sulfonyl)-1-(2-cyclohexyl-5-methylphenoxy)cyclopropane-1-carboxamide] | 421% | 2010 nM | 91% | 15 nM |  |
| Cc1ccc(C2CCCOC2)c(OC2(C(=O)NS(=O)(=O)c3cccc(N4CCC[C@@H](CO)C4)n3)CC2)c1 (stereo partly drawn) [Example 4-20, N-((6-((R)-3-(hydroxymethyl)piperidin-1-yl)pyridin-2-yl)sulfonyl)-1-(5-methyl-2-(tetrahydro-2H-pyran-3-yl)phenoxy)cyclopropane-1-carboxamide] | 202% | 3230 nM | 54% | 297 nM |  |

Continued by falling EC50 (delF508-CFTR-HRP), values first:

| Emax (delF508-CFTR-HRP) | EC50 (delF508-CFTR-HRP) | MTECC24 CFHBEC-Amax % (delF508-CFTR) | EC50 (delF508-CFTR) | DelF508-CFTR-HRP Amax % (delF508-CFTR-HRP) | SMILES |
| --- | --- | --- | --- | --- | --- |
| 179% | 3960 nM | 94% | 312 nM |  | Cc1ccc(C2CCCC(F)(F)C2)c(OC2(C(=O)NS(=O)(=O)c3cccc(N)n3)CC2)c1 (stereo not drawn) [Example 1-5, N-((6-Aminopyridin-2-yl)sulfonyl)-1-(2-(3,3-difluorocyclohexyl)-5-methylphenoxy)cyclopropane-1-carboxamide] |
| 258% | 3410 nM | 51% | 35 nM |  | COc1ccc(C2CCC(F)(F)CC2)c(OC2(C(=O)NS(=O)(=O)c3cccc(N4CCC[C@H](CO)C4)n3)CC2)c1 [Example 3-7, (S)-1-(2-(4,4-Difluorocyclohexyl)-5-methoxyphenoxy)-N-((6-(3-(hydroxymethyl)piperidin-1-yl)pyridin-2-yl)sulfonyl)cyclopropane-1-carboxamide] |
| 213% | 3020 nM | 66% | 7 nM |  | Cc1ccc(C2CCCCC2)c(OC2(C(=O)NS(=O)(=O)c3cccc(N4CCC(C)(C(=O)O)CC4)n3)CC2)c1 [Example 2-5, 1-(6-(N-(1-(2-cyclohexyl-5-methylphenoxy)cyclopropanecarbonyl)sulfamoyl)pyridin-2-yl)-4-methylpiperidine-4-carboxylic acid] |
| 142% | 2960 nM | 54% | 654 nM |  | Cc1ccc(C2CCCCC2)c(OC2(C(=O)NS(=O)(=O)c3cccc(N4CCC(N)CC4)n3)CC2)c1 [Example 2-41, N-((6-(4-Aminopiperidin-1-yl)pyridin-2-yl)sulfonyl)-1-(2-cyclohexyl-5-methylphenoxy)cyclopropanecarboxamide] |
| 597% | 2870 nM | 99% | 11 nM |  | Cc1ccc(C2CCC(F)(F)CC2)c(OC2(C(=O)NS(=O)(=O)c3cccc(N4CCCC(CO)C4)n3)CC2)c1 (single isomer, unassigned) [Example 3-3-1] |
| 621% | 1760 nM | 85% | 3 nM |  | Cc1ccc(C2CCCCC2)c(OC2(C(=O)NS(=O)(=O)c3cccc(N4CCOC(C)C4)n3)CC2)c1 (stereo not drawn) [Example 2-51, 1-(2-Cyclohexyl-5-methylphenoxy)-N-((6-(2-methylmorpholino)pyridin-2-yl)sulfonyl)cyclopropane-1-carboxamide] |
| 306% | 1350 nM | 103% | 3 nM |  | Cc1ccc(C2CCCCC2)c(OC2(C(=O)NS(=O)(=O)c3cccc(N4CCNC(C(F)(F)F)C4)n3)CC2)c1 (stereo not drawn) [Example 2-37, 1-(2-Cyclohexyl-5-methylphenoxy)-N-((6-(3-(trifluoromethyl)piperazin-1-yl)pyridin-2-yl)sulfonyl)cyclopropanecarboxamide] |
| 561% | 1330 nM | 59% | 2 nM |  | Cc1ccc(C2CCCCC2)c(OC2(C(=O)NS(=O)(=O)c3cccc(N4CCOC[C@@H]4C)n3)CC2)c1 [Example 2-2, (S)-1-(2-Cyclohexyl-5-methylphenoxy)-N-((6-(3-methylmorpholino)pyridin-2-yl)sulfonyl)cyclopropanecarboxamide] |
|  | 900 nM | 191.0% | 176 nM | 819.2% | Cc1ccc(C2CCC(C)(C)OC2)c(OC2(C(=O)NS(=O)(=O)c3cccc(N4CCC(O)(c5ccc(Cl)cc5)CC4)n3)CC2)c1 (single isomer, unassigned) [Example 11-1-2, N-((6-(4-(4-chlorophenyl)-4-hydroxypiperidin-1-yl)pyridin-2-yl)sulfonyl)-1-(2-(6,6-dimethyltetrahydro-2H-pyran-3-yl)-5-methylphenoxy)cyclopropane-1-carboxamide] |
| 626% | 870 nM | 76% | 63 nM |  | Cc1ccc(C2CCCCC2)c(OC2(C(=O)NS(=O)(=O)c3cccc(N4CC5(CN(C(=O)OC(C)(C)C)C5)C4)n3)CC2)c1 [Example 2-29, Tert-butyl 6-(6-(N-(1-(2-cyclohexyl-5-methylphenoxy)cyclopropanecarbonyl)sulfamoyl)pyridin-2-yl)-2,6-diazaspiro[3.3]heptane-2-carboxylate] |
|  | 680 nM | 100.3% | 117 nM | 380.3% | Cc1ccc(C2CCC3(CCCC3)OC2)c(OC2(C(=O)NS(=O)(=O)c3cccc(N4CCC(O)(c5ccc(Cl)cc5)CC4)n3)CC2)c1 (single isomer, unassigned) [Example 11-3-1, N-((6-(4-(4-chlorophenyl)-4-hydroxypiperidin-1-yl)pyridin-2-yl)sulfonyl)-1-(5-methyl-2-(6-oxaspiro[4.5]decan-8-yl)phenoxy)cyclopropane-1-carboxamide] |
| 337% | 460 nM | 79% | 5 nM |  | COC(=O)C1(C)CCN(c2cccc(S(=O)(=O)NC(=O)C3(Oc4cc(C)ccc4C4CCCCC4)CC3)n2)CC1 [Example 2-3, Methyl 1-(6-(N-(1-(2-cyclohexyl-5-methylphenoxy)cyclopropanecarbonyl)sulfamoyl)pyridin-2-yl)-4-methylpiperidine-4-carboxylate] |
